In PubChem BioAssay (NCI):
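Grown in 96-well plates, cells were treated for 48 hours with each compound at five concentrations. Insufficient inhibition: endpoint recorded as highest concentration tested. TGI: total growth inhibition.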

Experiments:
Assay in all cases: NCI tumour cell line growth inhibition, 48 h
[1] = tested on: A549 NSCLC
[2] = tested on: SF-539 CNS
[3] = tested on: DLD-1 colon
[4] = tested on: DMS 114 small cell lung
[5] = tested on: HOP-18 NSCLC
[6] = tested on: LXFL 529 NSCLC
[7] = tested on: M19-MEL melanoma
[8] = tested on: SNB-78 CNS
[9] = tested on: XF 498 CNS
[10] = tested on: DMS 273 small cell lung
[11] = tested on: KM20L2 colon
[12] = tested on: RXF-631 renal

`COc1ccc(/C=C2\CCC(CNc3cc(C)on3)C2=O)cc1` (configuration not stated) was tested, and the TGI [1] was over 100 µM and the TGI [2] was over 100 µM.
`N=c1oc2ccc([N+](=O)[O-])cc2cc1C(=O)NCc1ccccc1` showed a TGI [1] of over 100 µM and a TGI [2] of 33.3 µM.
`CC12CCC3[C@@H](CC3(C)C)C(O)(CCC1=O)C2` (some centres not stated) gave a TGI [1] of over 100 µM and a TGI [2] of over 100 µM.
`COCC(N=CN1CCCc2ccccc2[C@@H]1CCCCl)C(C)(C)C` (some centres not stated) showed a TGI [1] of 66.3 µM and a TGI [2] of 24.4 µM.
`OC(CCN1CCCCC1)(c1ccccc1)c1ccccc1` showed a TGI [1] of over 100 µM.
For `CC(C)(C)[Si](C)(C)O[C@@H](C(=O)OC1C=CCCC1)[C@@H](NC(=O)c1ccccc1)c1ccccc1` (some centres not stated), the TGI [1] was 94.9 µM and the TGI [2] was over 100 µM.
Compound `CC(C)(C)O/C=C1/C(=O)OC2C[C@@H](O[Si](C)(C)C(C)(C)C)CC12` (some centres not stated) has a TGI [1] of over 100 µM.
Work on `CCOC(=O)NNC(=O)C1CSC(c2ccccc2)N1C(C)=O` (configuration not stated) yielded a TGI [1] of over 100 µM and a TGI [2] of over 100 µM.
Compound `CCN(CC)c1cc2c3c(c1)CCCN3CCC2` has a TGI [1] of over 10 µM and a TGI [2] of over 10 µM.
Work on `COc1cccc(OC/C(N=Cc2cccnc2)=N/NC(=O)c2ccncc2)c1` yielded a TGI [1] of over 100 µM and a TGI [2] of over 100 µM.
Compound `CCCCCCCCCCCCCCCCCCNc1ccn(C2OC(COP(=O)(O)OC3CC(n4cc(F)c(=O)[nH]c4=O)OC3COP(=O)(O)OCC3OC(n4ccc(N)nc4=O)C(O)C3O)C(O)C2O)c(=O)n1` (configuration not stated) has a TGI [1] of over 51 µM and a TGI [2] of 2.17 µM.
In the case of `CN(C)C=Nc1cccc2nsnc12`, the TGI [1] is reported as over 100 µM and the TGI [2] is reported as over 100 µM.
`CCOC(=O)C1=CN/C(=C(/C)C(=O)OC)SC1C(=O)OCC` (configuration not stated) showed a TGI [1] of over 100 µM and a TGI [2] of over 100 µM.
In the case of `CN(C)C=C1C(=O)c2c(Br)sc(Br)c2C1=O`, the TGI [1] is reported as over 100 µM and the TGI [2] is reported as 35.7 µM.
`N#C/C(=C\c1cn(Cc2ccccc2)c2ccccc12)c1nn(-c2ccccc2)c(N)c1C#N` showed a TGI [1] of 24.6 µM and a TGI [2] of 7.22 µM.
`COc1ccc2c(c1)/C(=C\c1c(C)nc3n1CCS3)C(=O)N2` was tested, and the TGI [1] was over 100 µM and the TGI [2] was 54.7 µM.
`O=C1CC(CC(O)[C@@H]2CCCC[C@@H]2O)CC(=O)N1c1ccccc1` (some centres not stated) gave a TGI [1] of over 100 µM and a TGI [2] of over 100 µM.
In the case of `C[C@]12C[C@H](c3ccccc3)Nc3ccccc3N1C(c1ccccc1)=NO2`, the TGI [1] is reported as over 100 µM and the TGI [2] is reported as over 100 µM.
With `COC1CC(C)C(OC)C2=CC(=O)C=C(NC(=O)/C(C)=C/C=C\C(C)C(OC(N)=O)/C(C)=C\C(C)C1OC)C2=O` (configuration not stated) the TGI [1] was 31.4 µM, the TGI [3] was 2.58 µM and the TGI [4] was 17.8 µM. It also gave a TGI [5] of 15.7 µM, a TGI [6] of 1.8 µM and a TGI [7] of 6.62 µM. It also gave a TGI [2] of 1.04 µM, a TGI [8] of 13.6 µM and a TGI [9] of 3.13 µM.
`COC(=O)c1c(O)ccc2c1c1c(n2Cc2ccccc2)C(=O)c2ccccc2C1=O` was tested, and the TGI [1] was 22.6 µM and the TGI [2] was 29.1 µM.
For `CC(=O)C(=[N+]=[N-])C(=O)NCC#N`, the TGI [1] was over 10 µM and the TGI [2] was over 10 µM.
`COC(=O)c1cc2c(o1)Sc1ccccc1NC2=O` showed a TGI [1] of over 100 µM and a TGI [2] of over 100 µM.
Work on `O=c1c(C=Nc2ccccc2Cl)c(O)n(-c2ccccc2)c(=O)n1-c1ccccc1` yielded a TGI [1] of over 100 µM and a TGI [2] of over 100 µM.
For `O=C1CC(NC(=O)C(F)(F)F)c2c1csc2Br` (configuration not stated), the TGI [1] was over 100 µM and the TGI [2] was over 100 µM.
For `CC[C@](O)(CC(=O)O[C@H]1C(=O)O[C@@H]2C[C@H]3C(C)=CC(=O)[C@@H](O)[C@]3(C)[C@H]3[C@@]4(O)OC[C@]32[C@@H]1[C@@H](C)[C@H]4O)C(C)C`, the TGI [2] was under 0.01 µM.
Work on `CN1CCC2(CC1)SC[C@H]1C(=O)N(c3ccc(Cl)cc3)C(=O)N12` yielded a TGI [1] of over 100 µM and a TGI [2] of over 100 µM.
Compound `CCOC(=O)C(C(=O)OCC)=C1NC2(c3ccccc3Nc3ccc(C)cc32)C(C#N)S1` (configuration not stated) has a TGI [1] of 21.8 µM and a TGI [2] of 12 µM.
In the case of `COc1ccc(Nc2nnc(CCCCCCCCc3nnc(Nc4ccc(OC)cc4)o3)o2)cc1`, the TGI [1] is reported as over 100 µM and the TGI [2] is reported as over 100 µM.
Compound `Cc1ccc2nc(CN3CCCC(O)C3)cc(=O)n2c1` (configuration not stated) has a TGI [1] of over 100 µM and a TGI [2] of over 100 µM.
`COC(=O)C(C)NP(=O)(N1CC1)N1CC1` (configuration not stated) showed a TGI [1] of over 100 µM, a TGI [3] of over 100 µM and a TGI [4] of over 100 µM. For the same compound, the TGI [10] was over 100 µM, the TGI [11] was over 100 µM and the TGI [6] was over 100 µM. For the same compound, the TGI [12] was over 100 µM, the TGI [2] was over 100 µM and the TGI [8] was over 100 µM. The TGI [9] was over 100 µM.
For `COc1cc(S(=O)(=O)Nc2nc(-c3ccc(N4C(=O)CSC4c4cccs4)cc3)cs2)ccc1Cl` (configuration not stated), the TGI [1] was over 100 µM and the TGI [2] was over 100 µM.
With `Cc1cc(C)nc(NS(=O)(=O)c2ccc(NNc3c4ccccc4nc4c(C(=O)Nc5ccc(S(=O)(=O)Nc6ncccn6)cc5)cccc34)cc2)n1` the TGI [1] was over 100 µM and the TGI [2] was 69.4 µM.
With `Cc1oc2c(c1C)S(=O)(=O)C(C#N)C(c1ccccc1)N2` (configuration not stated) the TGI [1] was over 100 µM and the TGI [2] was over 100 µM.
For `c1ccc2c(C3CCN(CCN4CCOCC4)C3)c[nH]c2c1` (configuration not stated), the TGI [1] was over 100 µM.
`COc1cc(S(=O)(=O)Nc2nc(-c3ccc(N4C(=O)C(CC(=O)O)SC4c4ccccc4O)cc3)cs2)ccc1Cl` (configuration not stated) was tested, and the TGI [1] was over 100 µM and the TGI [2] was over 100 µM.
`CCOC(=O)C(SCCO)C(C(=O)OCC)n1cnc2c(N)ncnc21` (configuration not stated) was tested, and the TGI [1] was over 100 µM and the TGI [2] was 35.5 µM.
For `CCC(Sc1cc(Cl)c(C)cc1S(=O)(=O)Nc1nc(N)nc(N(C)C)n1)C(=O)O` (configuration not stated), the TGI [1] was over 10 µM and the TGI [2] was over 10 µM.
`Nc1nc(Cl)c(N)c(NCC2(CO)CCC2)n1` was tested, and the TGI [1] was over 100 µM and the TGI [2] was over 100 µM.
`COc1cc(C2SCC(=O)N2c2ccccc2Cl)cc(OC)c1OC` (configuration not stated) gave a TGI [1] of over 100 µM and a TGI [2] of over 100 µM.
Work on `CN(C)c1ccc(/C=N\NC(=O)c2ccccc2Nc2ccccc2C(=O)N/N=C/c2ccc(N(C)C)cc2)cc1` yielded a TGI [1] of over 100 µM and a TGI [2] of 81.9 µM.
`CN1C2CCC1CC(CCOC(c1ccc(F)cc1)c1ccc(F)cc1)C2` (configuration not stated) was tested, and the TGI [1] was 35.7 µM and the TGI [2] was 29.9 µM.
For `O=[n+]1c2ccccc2n([O-])c2ccccc21`, the TGI [1] was over 100 µM and the TGI [2] was over 100 µM.
Work on `COC(=O)C(Cc1c[nH]c2ccccc12)N=C1Nc2ccncc2S(=O)(=O)N1c1ccccc1` (configuration not stated) yielded a TGI [1] of over 100 µM and a TGI [2] of 35 µM.
